The values below come from ChEMBL document CHEMBL4002601, “A triple exon-skipping luciferase reporter assay identifies a new CLK inhibitor pharmacophore” (Bioorg Med Chem Lett, 2017).

The target in assay [1] is Serine/threonine-protein kinase B-raf (Homo sapiens) (UniProt P15056). The experiment in a line: Inhibition of human BRAF using myelin basic protein as substrate in presence of [gamma-33P]ATP at 1 uM after 40 mins by scintillation counter method.
In assay [2] the target is Dual specificity tyrosine-phosphorylation-regulated kinase 1A (Homo sapiens) (UniProt Q13627). The experiment in a line: Inhibition of human DYRK1A using RRRFRPASPLRGPPK as substrate in presence of [gamma-33P]ATP at 1 uM after 40 mins by scintillation counter method.
Assay [3] concerns the target ALK tyrosine kinase receptor (Homo sapiens) (UniProt Q9UM73). The experiment in a line: Inhibition of human ALK using casein as substrate in presence of [gamma-33P]ATP at 1 uM after 40 mins by scintillation counter method.
Assay [4] concerns the target Epidermal growth factor receptor (Homo sapiens) (UniProt P00533). The experiment in a line: Inhibition of human EGFR using poly(Glu, Tyr) 4:1 as substrate in presence of [gamma-33P]ATP at 1 uM after 40 mins by scintillation counter method.
For assay [5], the target named is Receptor tyrosine-protein kinase erbB-2 (Homo sapiens) (UniProt P04626). Nature of the assay: Inhibition of human ErbB2 using poly(Glu, Tyr) as substrate in presence of [gamma-33P]ATP at 1 uM after 40 mins by scintillation counter method.
The target of assay [6] is T1, Inhibitor of nuclear factor kappa-B kinase subunit beta (Homo sapiens) (UniProt O14920).
T1 sequence (whole entry): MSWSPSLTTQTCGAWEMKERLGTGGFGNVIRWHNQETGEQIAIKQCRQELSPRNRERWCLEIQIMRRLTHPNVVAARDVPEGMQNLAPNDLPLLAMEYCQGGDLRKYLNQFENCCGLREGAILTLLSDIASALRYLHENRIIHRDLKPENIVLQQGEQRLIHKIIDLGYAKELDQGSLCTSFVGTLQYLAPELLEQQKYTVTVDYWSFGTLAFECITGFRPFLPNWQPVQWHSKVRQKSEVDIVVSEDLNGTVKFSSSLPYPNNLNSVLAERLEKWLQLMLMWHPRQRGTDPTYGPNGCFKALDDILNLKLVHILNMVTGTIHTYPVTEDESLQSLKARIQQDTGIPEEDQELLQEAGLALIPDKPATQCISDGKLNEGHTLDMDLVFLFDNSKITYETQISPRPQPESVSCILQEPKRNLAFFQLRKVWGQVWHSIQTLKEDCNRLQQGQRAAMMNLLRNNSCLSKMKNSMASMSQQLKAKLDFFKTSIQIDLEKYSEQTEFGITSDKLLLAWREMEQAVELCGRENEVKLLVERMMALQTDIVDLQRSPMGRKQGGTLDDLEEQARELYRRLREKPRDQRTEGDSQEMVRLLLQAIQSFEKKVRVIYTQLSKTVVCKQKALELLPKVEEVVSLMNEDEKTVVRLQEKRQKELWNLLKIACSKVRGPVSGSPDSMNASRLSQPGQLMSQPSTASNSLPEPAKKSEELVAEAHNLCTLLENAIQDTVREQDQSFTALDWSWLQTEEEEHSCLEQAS
The experiment in a line: Inhibition of human IKKbeta using KKKKERLLDDRHDSGLDSMKDEE as substrate in presence of [gamma-33P]ATP at 1 uM after 40 mins by scintillation counter method.

Assay [7] deals with Mitogen-activated protein kinase 9 (Homo sapiens) (UniProt P45984). The experiment in a line: Inhibition of human JNK2alpha2 using ATF2 as substrate in presence of [gamma-33P]ATP at 1 uM after 40 mins by scintillation counter method.
Assay [8] has as its target Vascular endothelial growth factor receptor 2 (Homo sapiens) (UniProt P35968). The experiment in a line: Inhibition of human KDR using myelin basic protein as substrate in presence of [gamma-33P]ATP at 1 uM after 40 mins by scintillation counter method.
In assay [9] the target is Dual specificity mitogen-activated protein kinase kinase 1 (Homo sapiens) (UniProt Q02750). Nature of the assay: Inhibition of human MEK1 using inactive MAPK2 as substrate in presence of [gamma-33P]ATP at 1 uM after 40 mins by scintillation counter method.
The target of assay [10] is T2, Mitogen-activated protein kinase kinase kinase 2 (Homo sapiens) (UniProt Q9Y2U5).
T2 sequence (whole entry): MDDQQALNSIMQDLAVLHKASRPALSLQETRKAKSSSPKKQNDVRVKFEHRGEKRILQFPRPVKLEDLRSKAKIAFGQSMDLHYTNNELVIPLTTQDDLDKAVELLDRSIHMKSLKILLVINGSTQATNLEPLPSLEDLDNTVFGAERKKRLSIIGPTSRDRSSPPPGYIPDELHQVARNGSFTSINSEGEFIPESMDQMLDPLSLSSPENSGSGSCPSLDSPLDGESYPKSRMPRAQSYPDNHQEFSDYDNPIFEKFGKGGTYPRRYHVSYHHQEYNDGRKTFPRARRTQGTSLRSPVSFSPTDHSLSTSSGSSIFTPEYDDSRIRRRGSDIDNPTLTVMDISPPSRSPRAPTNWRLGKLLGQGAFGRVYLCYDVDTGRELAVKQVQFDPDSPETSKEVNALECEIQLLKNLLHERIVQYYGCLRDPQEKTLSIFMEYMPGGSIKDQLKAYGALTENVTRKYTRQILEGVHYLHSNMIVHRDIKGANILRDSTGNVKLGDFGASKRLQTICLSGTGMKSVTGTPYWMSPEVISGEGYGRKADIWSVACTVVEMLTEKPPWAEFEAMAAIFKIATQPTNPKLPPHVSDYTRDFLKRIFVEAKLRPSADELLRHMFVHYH
Nature of the assay: Inhibition of human MEKK2 using myelin basic protein as substrate in presence of [gamma-33P]ATP at 1 uM after 40 mins by scintillation counter method.

The target of assay [11] is Proto-oncogene tyrosine-protein kinase Src (Homo sapiens) (UniProt P12931). Nature of the assay: Inhibition of human Src (1 to 530 residues) using GGEEEEYFELVKKKK as substrate in presence of [gamma-33P]ATP at 1 uM after 40 mins by scintillation counter method.
In assay [12] the target is SRSF protein kinase 1 (Homo sapiens) (UniProt Q96SB4). The experiment in a line: Inhibition of human SRPK1 using RSRSRSRSRSRSRSR as substrate in presence of [gamma-33P]ATP at 1 uM after 40 mins by scintillation counter method.
Assay [13] has as its target PI3-kinase p110-delta/p85-alpha (Homo sapiens) (UniProt P27986+O00329). Nature of the assay: Inhibition of human PI3K p110delta/pI3K p85alpha at 1 uM using PIP2 as substrate in presence of biotinylated PIP3 and ATP and measured after 30 mins by HTRF method. It is filed as protein-complex assay.
The target of assay [14] is Dual specificity protein kinase CLK1 (Homo sapiens, UniProt P49759). Nature of the assay: Inhibition of CLK mediated SF3B1 activation in human SK-MEL-2 cells assessed as MDM2-pre mRNA exon skipping at 10 uM after 4 hrs by luciferase reporter gene assay relative to control. The format is cell-based.
For assay [15], the target named is Mitogen-activated protein kinase 10 (Homo sapiens) (UniProt P53779). The experiment in a line: Inhibition of human JNK3 using substrate in presence of [gamma-33P]ATP at 1 uM after 40 mins by scintillation counter method.

Sequence of Serine/threonine-protein kinase B-raf (Homo sapiens) (P15056 whole entry): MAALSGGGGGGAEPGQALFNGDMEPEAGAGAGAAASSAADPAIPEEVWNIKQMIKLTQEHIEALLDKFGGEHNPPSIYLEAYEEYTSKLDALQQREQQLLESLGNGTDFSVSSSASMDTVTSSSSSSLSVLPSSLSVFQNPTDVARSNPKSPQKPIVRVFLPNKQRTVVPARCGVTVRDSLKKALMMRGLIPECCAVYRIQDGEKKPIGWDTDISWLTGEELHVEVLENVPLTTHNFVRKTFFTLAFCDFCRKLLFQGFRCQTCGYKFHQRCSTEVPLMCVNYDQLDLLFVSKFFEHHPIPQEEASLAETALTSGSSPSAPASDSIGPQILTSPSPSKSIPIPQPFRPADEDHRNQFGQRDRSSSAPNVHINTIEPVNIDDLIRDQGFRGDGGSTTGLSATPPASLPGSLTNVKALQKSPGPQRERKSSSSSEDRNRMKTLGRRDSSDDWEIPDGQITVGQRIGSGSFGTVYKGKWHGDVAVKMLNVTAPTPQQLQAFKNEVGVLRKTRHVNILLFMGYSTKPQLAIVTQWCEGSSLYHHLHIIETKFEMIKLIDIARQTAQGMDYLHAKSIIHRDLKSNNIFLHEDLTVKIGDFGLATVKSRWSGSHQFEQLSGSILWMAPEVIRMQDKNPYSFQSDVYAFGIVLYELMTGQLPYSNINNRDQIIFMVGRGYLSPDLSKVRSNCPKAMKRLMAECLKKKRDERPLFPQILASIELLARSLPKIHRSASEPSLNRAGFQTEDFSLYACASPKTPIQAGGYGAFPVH
Sequence of Dual specificity mitogen-activated protein kinase kinase 1 (Homo sapiens) (Q02750 whole entry): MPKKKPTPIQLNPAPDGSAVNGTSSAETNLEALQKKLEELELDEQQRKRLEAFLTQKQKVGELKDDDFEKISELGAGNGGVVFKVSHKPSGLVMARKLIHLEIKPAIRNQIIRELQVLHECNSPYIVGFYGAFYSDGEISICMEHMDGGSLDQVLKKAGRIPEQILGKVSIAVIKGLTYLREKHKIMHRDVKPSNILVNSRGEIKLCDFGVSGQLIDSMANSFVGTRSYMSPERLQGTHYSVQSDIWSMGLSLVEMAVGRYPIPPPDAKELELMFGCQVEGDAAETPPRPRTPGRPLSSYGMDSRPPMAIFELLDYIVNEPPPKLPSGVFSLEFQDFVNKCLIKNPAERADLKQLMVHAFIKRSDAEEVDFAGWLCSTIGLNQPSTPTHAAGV
Sequence of ALK tyrosine kinase receptor (Homo sapiens) (Q9UM73 19-1620 limits assumed): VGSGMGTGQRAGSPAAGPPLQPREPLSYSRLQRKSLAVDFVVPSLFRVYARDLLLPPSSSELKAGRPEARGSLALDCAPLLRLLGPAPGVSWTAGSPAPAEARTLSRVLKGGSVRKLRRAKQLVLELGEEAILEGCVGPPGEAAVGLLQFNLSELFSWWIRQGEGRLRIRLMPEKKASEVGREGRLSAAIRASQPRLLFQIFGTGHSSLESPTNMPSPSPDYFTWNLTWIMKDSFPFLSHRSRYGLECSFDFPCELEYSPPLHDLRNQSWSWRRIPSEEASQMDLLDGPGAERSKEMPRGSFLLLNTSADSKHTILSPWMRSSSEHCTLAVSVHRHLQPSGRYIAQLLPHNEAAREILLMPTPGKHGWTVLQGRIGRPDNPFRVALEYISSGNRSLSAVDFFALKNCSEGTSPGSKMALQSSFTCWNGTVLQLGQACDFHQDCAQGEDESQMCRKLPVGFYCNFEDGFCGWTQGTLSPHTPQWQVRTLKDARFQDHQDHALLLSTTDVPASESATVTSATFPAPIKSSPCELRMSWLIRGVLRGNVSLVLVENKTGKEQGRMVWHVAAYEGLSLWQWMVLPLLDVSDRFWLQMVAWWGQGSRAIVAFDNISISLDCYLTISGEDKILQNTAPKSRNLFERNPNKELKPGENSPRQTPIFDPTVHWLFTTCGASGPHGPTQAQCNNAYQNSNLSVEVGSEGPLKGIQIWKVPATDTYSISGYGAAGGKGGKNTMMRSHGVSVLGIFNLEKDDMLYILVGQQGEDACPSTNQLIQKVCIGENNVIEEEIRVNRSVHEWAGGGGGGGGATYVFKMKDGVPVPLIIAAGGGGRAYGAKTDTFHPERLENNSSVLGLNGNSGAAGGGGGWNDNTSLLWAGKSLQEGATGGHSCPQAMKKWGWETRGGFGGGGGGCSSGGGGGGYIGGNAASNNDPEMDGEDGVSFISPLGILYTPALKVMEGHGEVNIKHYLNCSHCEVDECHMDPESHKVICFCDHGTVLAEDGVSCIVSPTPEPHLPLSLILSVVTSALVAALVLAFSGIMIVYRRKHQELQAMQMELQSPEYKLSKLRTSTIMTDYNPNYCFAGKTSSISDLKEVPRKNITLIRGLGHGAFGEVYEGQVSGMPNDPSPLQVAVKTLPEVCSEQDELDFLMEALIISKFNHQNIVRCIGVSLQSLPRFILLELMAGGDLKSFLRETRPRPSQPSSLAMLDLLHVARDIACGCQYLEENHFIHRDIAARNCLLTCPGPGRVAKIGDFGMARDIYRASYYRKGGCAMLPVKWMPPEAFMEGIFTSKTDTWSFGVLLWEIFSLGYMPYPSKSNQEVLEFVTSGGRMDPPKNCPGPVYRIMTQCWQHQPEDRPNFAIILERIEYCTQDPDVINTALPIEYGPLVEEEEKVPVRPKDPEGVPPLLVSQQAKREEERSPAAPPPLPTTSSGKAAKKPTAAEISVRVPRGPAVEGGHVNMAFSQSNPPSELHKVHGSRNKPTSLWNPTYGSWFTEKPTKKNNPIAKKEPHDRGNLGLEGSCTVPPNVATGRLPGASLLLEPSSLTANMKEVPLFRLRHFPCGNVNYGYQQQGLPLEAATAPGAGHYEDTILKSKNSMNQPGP
Sequence of Epidermal growth factor receptor (Homo sapiens) (P00533 whole entry): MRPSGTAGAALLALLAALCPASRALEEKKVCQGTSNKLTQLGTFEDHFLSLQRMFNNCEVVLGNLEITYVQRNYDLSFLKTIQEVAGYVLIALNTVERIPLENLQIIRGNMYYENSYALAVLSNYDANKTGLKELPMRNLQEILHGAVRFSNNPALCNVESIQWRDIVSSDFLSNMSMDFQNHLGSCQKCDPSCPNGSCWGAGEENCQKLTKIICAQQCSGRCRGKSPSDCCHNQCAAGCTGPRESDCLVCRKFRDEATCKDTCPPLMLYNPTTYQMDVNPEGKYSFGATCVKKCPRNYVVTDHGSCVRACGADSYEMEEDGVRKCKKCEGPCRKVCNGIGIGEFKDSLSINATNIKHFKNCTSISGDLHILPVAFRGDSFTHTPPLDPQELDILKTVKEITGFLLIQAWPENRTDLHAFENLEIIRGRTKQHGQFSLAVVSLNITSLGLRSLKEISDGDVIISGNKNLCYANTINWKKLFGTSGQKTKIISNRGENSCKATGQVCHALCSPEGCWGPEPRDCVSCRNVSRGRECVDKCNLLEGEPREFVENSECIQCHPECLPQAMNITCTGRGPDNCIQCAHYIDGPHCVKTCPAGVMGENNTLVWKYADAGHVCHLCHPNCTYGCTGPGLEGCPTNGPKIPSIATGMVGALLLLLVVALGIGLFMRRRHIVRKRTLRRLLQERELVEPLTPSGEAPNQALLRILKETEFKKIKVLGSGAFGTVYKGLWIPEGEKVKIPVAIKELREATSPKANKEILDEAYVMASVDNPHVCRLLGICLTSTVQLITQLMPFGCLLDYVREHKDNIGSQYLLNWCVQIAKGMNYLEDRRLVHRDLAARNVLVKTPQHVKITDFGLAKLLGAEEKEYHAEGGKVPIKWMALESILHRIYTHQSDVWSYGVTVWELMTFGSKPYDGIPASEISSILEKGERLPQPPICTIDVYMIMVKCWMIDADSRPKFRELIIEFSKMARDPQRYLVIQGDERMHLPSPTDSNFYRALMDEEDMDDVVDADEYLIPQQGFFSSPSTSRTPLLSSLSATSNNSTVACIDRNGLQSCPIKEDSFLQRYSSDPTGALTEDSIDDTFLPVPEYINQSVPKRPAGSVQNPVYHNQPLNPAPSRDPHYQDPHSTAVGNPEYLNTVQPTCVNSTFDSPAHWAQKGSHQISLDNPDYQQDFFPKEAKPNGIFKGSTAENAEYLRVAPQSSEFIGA
Sequence of SRSF protein kinase 1 (Homo sapiens) (Q96SB4 whole entry): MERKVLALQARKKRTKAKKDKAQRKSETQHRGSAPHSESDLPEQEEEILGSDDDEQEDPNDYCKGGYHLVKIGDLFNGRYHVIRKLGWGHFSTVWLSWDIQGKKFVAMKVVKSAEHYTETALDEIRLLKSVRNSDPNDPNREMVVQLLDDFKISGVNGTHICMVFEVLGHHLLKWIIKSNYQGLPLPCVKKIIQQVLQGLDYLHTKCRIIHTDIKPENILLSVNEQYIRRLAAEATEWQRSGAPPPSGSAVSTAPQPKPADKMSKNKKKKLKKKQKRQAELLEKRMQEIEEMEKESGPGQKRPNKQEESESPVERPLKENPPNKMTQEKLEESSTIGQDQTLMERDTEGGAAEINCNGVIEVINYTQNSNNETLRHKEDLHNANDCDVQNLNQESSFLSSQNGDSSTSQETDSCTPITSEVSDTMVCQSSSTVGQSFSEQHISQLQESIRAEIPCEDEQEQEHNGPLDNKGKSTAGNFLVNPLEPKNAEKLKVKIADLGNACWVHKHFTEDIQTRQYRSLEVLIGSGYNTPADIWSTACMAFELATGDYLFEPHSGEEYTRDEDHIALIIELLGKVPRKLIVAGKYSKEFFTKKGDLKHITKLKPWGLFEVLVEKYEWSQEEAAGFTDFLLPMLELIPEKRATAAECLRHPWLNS
Sequence of Mitogen-activated protein kinase 9 (Homo sapiens) (P45984 whole entry, looked up): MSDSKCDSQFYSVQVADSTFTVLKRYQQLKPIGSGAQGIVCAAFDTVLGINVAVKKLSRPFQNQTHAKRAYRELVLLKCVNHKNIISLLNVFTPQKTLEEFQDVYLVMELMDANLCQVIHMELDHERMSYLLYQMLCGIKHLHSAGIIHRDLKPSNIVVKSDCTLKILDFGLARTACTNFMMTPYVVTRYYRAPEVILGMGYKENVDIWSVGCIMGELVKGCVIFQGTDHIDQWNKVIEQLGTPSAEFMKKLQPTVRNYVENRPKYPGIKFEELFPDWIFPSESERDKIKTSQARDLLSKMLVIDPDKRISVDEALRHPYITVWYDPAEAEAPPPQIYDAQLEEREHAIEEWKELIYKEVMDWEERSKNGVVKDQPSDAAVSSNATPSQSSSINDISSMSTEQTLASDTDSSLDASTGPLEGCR

For orientation: inhibition means the change of the read-out against control, counted positive when it falls. On to `CC(C)n1cnc2c(Nc3cccc(Cl)c3)nc(N[C@H]3CCCC[C@@H]3N)nc21`, for which the inhibition in [1] was 10%; in assay [2], 5%; in assay [3], 7%; in [4], -6%; in [5], 2%; in assay [6] it was -2%. Also, the inhibition was 1% in [7]; 16% in [8]; 10% in assay [9]; 47% in assay [10]; 22% in assay [11]; -1% in assay [12]. The inhibition in assay [13] was found to be 2%; in [15], 6%. Besides, the fold change (FC) in assay [14] was greater than 3.
With `CC(C)n1cnc2c(Nc3cc(N)cc(Cl)c3)nc(N[C@@H]3CCCC[C@@H]3N)nc21` (racemic), the inhibition is 5% in [1]; 19% in assay [2]; 10% in [3]; -1% in assay [4]; 3% in assay [5]; -9% in [6]. The inhibition in [7] was -6%; in assay [8], 4%; in assay [9] it was 6%; in assay [10], 48%; in assay [11], 78%; in assay [12] it was 21%. Also, the figures for the inhibition in [13] and in [15] were 0% and -10%, respectively. For the same molecule, the fold change (FC) in assay [14] was greater than 3.
Consider `CC(C)n1cnc2c(Nc3cccc(Cl)c3)nc(N[C@@H]3CCCC[C@@H]3N)nc21`, for which the inhibition in assay [1] was 21%; in assay [2], 28%; in assay [3], -2%; in [4], 3%; in assay [5], 0%; in [6], -5%. For the same molecule, the inhibition in assay [7] is 4%; in assay [8], -6%; in [9], 8%; in assay [10], 18%; in assay [11], 69%; in assay [12], 48%. In addition, the inhibition was 3% in assay [13] and -5% in assay [15]. In addition, in assay [14], the fold change (FC) was greater than 3.
